This note sets out measurements from US9850283B2, “Macrocyclic inhibitors of the PD-1/PD-L1 and CD80(B7-1)/PD-L1 protein/protein interactions” (BRISTOL-MYERS SQUIBB COMPANY, priority 2013, dated 2017).

Where two headings read alike, the source gives them in different places. Positions of bridges follow the written chain, without caps; N, C: chain ends. Non-standard residues stand in square brackets, D forms with d. Residues, ends and D or L forms follow the SMILES beside them. ξ: configuration not given here. *: point of attachment. Pro(4R-Bn) = O=C(O)[C@@H]1C[C@@H](Cc2ccccc2)CN1; Ala(4-thiazolyl) = N[C@@H](Cc1cscn1)C(=O)O; Bta = N[C@@H](Cc1csc2ccccc12)C(=O)O; Hyp = O=C(O)[C@@H]1C[C@@H](O)CN1; NMeNle = CCCC[C@H](NC)C(=O)O; NMeA = CN[C@@H](C)C(=O)O; Dab = NCC[C@H](N)C(=O)O; Dap = NC[C@H](N)C(=O)O; Bz = O=C(c1ccccc1)*; ξC = NC(CS)C(=O)O; Sar = CNCC(=O)O

The target in assay [1] is T1, LK35.2-hPD-L1 cells / PE-labeled PD-1-Ig (Homo sapiens, UniProt Q9NZQ7).
T1 construct: expressed in transfected cells; host or cells: LK35.2 mouse B cell line
The assay is described as follows: LK35.2-hPD-L1 cell binding high-content screening assay. The format is cell-based. A digest of the protocol: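 Binding of PE-conjugated human PD-1-Ig (1 nM final) to human PD-L1 stably expressed on a mouse B-cell line (LK35.2) was measured by high-content imaging after washes. Compound and labeled PD-1-Ig were co-incubated 1 h at 37 °C with cells in RPMI/10% FCS.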

The target in the next assay is T2, Human PD-L1/PD-1 (Homo sapiens, UniProt Q9NZQ7).
T2 construct: made in house; host or cells: HEK293T
The experiment in a line: HTRF PD-1-Ig/PD-L1-His binding assay (human PD-L1). In outline:
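Soluble Fc-fused PD-1 and His-tagged PD-L1 (truncated before the transmembrane region) were combined in dPBS with 0.1% (w/v) BSA and 0.05% (v/v) Tween-20. Binding was read by HTRF using europium cryptate anti-Ig antibody (1 nM final) and APC anti-His antibody (20 nM final).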
For orientation: Time-resolved FRET reads energy transfer from a long-lived donor to a nearby acceptor.

Where [2] appears, read: cell binding assay, cell line not given, cluster symbol, read-out: CBA IC50 cluster.
Setting [3] is: cluster symbol, read-out: HTRF IC50 cluster.
Setting [4] is: cluster symbol, cell line of CBA not given (LK35.2-hPD-L1 or 293T-hPD-L1), read-out: CBA IC50 cluster.

T1 sequence (Q9NZQ7 19-290): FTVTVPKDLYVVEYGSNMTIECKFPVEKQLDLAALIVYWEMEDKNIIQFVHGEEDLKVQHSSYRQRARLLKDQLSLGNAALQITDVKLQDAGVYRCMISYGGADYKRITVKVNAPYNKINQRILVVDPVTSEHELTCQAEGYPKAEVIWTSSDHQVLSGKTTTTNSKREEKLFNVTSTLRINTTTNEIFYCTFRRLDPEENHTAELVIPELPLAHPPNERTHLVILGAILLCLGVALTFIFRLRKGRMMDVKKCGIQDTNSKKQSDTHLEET
T2 sequence (Q9NZQ7 with tags, fused parts or gaps): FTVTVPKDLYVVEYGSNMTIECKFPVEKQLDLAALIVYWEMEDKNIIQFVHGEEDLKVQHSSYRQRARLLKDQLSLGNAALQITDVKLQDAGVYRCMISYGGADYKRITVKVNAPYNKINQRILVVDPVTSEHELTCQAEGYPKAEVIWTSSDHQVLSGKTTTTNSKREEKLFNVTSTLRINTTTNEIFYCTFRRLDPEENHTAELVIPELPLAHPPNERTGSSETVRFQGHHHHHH

The IC50 is the concentration at which inhibition is half-maximal. As to `CCCC[C@H]1C(=O)N(C)[C@@H](C)C(=O)N[C@@H](CCCNC(=N)N)C(=O)NC(C(=O)NCC(N)=O)CSCC(=O)N[C@@H](Cc2ccc(O)cc2)C(=O)N(C)[C@@H](C)C(=O)N[C@@H](CC(N)=O)C(=O)N2CCC[C@H]2C(=O)N[C@@H](Cc2cnc[nH]2)C(=O)N[C@@H](CC(C)C)C(=O)N2C[C@H](O)C[C@H]2C(=O)N[C@@H](Cc2c[nH]c3ccccc23)C(=O)N[C@@H](CO)C(=O)N[C@@H](Cc2csc3ccccc23)C(=O)N1C` (some centres unmarked) [Example 9058] ({CH2CO}-Y[NMeA]NPHL[Hyp]WS[Bta][NMeNle][NMeA]R[ξC]G-NH2; thioether N-14), the IC50 in assay [1] (setting [2]) was in the range of 0.158 to 4.71 nM; at Human PD-L1/PD-1 (setting [3]) it was 0.385 to 6.74 nM.
For `CCCC[C@H]1C(=O)N(C)[C@@H](CCCC)C(=O)N[C@@H](CCCNC(=N)N)C(=O)N[C@H](C(=O)NCC(N)=O)CSCC(=O)N[C@@H](Cc2ccc(O)cc2)C(=O)N(C)[C@@H](C)C(=O)N[C@@H](CC(=O)O)C(=O)N2CCC[C@H]2C(=O)N[C@@H](Cc2c[nH]cn2)C(=O)N[C@@H](CCCCN)C(=O)N2C[C@H](O)C[C@H]2C(=O)N[C@@H](Cc2c[nH]c3ccccc23)C(=O)N[C@@H](CCCCN)C(=O)N[C@@H](Cc2c[nH]c3ccccc23)C(=O)N1C` [Example 5110] ({CH2CO}-Y[NMeA]DPHK[Hyp]WKW[NMeNle][NMeNle]RCG-NH2; thioether N-14) the same measures were 0.158 to 4.71 nM and 0.385 to 6.74 nM.
Take `CCCC[C@H]1C(=O)N(C)[C@@H](CCCC)C(=O)N[C@@H](CN)C(=O)N[C@H](C(=O)NCC(N)=O)CSCC(=O)N[C@@H](Cc2ccc(O)cc2)C(=O)N(C)[C@@H](C)C(=O)N[C@@H](CC(N)=O)C(=O)N2CCC[C@H]2C(=O)N[C@@H](CN)C(=O)N[C@@H](CC(C)C)C(=O)N2C[C@H](O)C[C@H]2C(=O)N[C@@H](Cc2c[nH]c3ccccc23)C(=O)N[C@@H](CO)C(=O)N[C@@H](Cc2c[nH]c3ccccc23)C(=O)N1C` [Example 5063] ({CH2CO}-Y[NMeA]NP[Dap]L[Hyp]WSW[NMeNle][NMeNle][Dap]CG-NH2; thioether N-14): the 50% inhibitory concentration (IC50) was in the range of 0.158 to 4.71 nM in assay [1] (setting [2]) and 0.385 to 6.74 nM on Human PD-L1/PD-1 (setting [3]).
As for `CCCC[C@H]1C(=O)N[C@@H](CCCNC(=N)N)C(=O)N[C@H](C(=O)NCC(N)=O)CSCC(=O)N[C@@H](Cc2ccccc2)C(=O)N(C)[C@@H](C)C(=O)N[C@@H](CC(N)=O)C(=O)N2CCC[C@H]2C(=O)N[C@@H](Cc2cnc[nH]2)C(=O)N[C@@H](CC(C)C)C(=O)N(C)CC(=O)N[C@@H](Cc2c[nH]c3ccccc23)C(=O)N[C@@H](CO)C(=O)N[C@@H](Cc2c[nH]c3ccccc23)C(=O)N[C@@H](CNC(=O)c2ccccc2)C(=O)N1C` [Example 1013] ({CH2CO}-F[NMeA]NPHL[Sar]WSW[Dap](Bz)[NMeNle]RCG-NH2; thioether N-14), the IC50 in assay [1] (CBA IC50 cluster, cluster symbol, cell line of CBA not given (LK35.2-hPD-L1 or 293T-hPD-L1)) was above 74.3 nM; on Human PD-L1/PD-1 (HTRF IC50 cluster, cluster symbol), above 30.5 nM.
In the case of `CCCC[C@H]1C(=O)N(C)[C@@H](CCCC)C(=O)N[C@@H](CN)C(=O)N[C@H](C(=O)NCC(N)=O)CSCC(=O)N[C@@H](Cc2ccc(O)cc2)C(=O)N(C)[C@@H](C)C(=O)N[C@@H](CC(N)=O)C(=O)N2CCC[C@H]2C(=O)N[C@@H](CN)C(=O)N[C@@H](CC(C)C)C(=O)N2C[C@H](O)C[C@H]2C(=O)N[C@@H](Cc2c[nH]c3ccccc23)C(=O)N[C@@H](CCN)C(=O)N[C@@H](Cc2csc3ccccc23)C(=O)N1C` [Example 1180] ({CH2CO}-Y[NMeA]NP[Dap]L[Hyp]W[Dab][Bta][NMeNle][NMeNle][Dap]CG-NH2; thioether N-14), the values for the half-inhibitory concentration (IC50) (in assay [1] (setting [4]); on Human PD-L1/PD-1 (setting [3])) were 0.158 to 4.71 nM and 0.385 to 6.74 nM, respectively.
As to `CCCC[C@H]1C(=O)N(C)[C@@H](CCCC)C(=O)N[C@@H](CC(N)=O)C(=O)N[C@H](C(=O)NCC(N)=O)CSCC(=O)N[C@@H](Cc2ccccc2)C(=O)N(C)[C@@H](C)C(=O)N[C@@H](CC(N)=O)C(=O)N2CCC[C@H]2C(=O)N[C@@H](Cc2cnc[nH]2)C(=O)N[C@@H](CC(C)C)C(=O)N(C)CC(=O)N[C@@H](Cc2c[nH]c3ccccc23)C(=O)N[C@@H](CO)C(=O)N[C@@H](Cc2c[nH]c3ccccc23)C(=O)N1C` [Example 5014] ({CH2CO}-F[NMeA]NPHL[Sar]WSW[NMeNle][NMeNle]NCG-NH2; thioether N-14), the concentration for half-maximal inhibition (IC50) in assay [1] (setting [2]) lay in the range of 4.78 to 72.9 nM; on Human PD-L1/PD-1 (setting [3]), 6.76 to 30.3 nM.
For `CCCC[C@H]1C(=O)N(C)[C@@H](CCCC)C(=O)N[C@@H](CC(C)C)C(=O)N[C@H](C(=O)NCC(N)=O)CSCC(=O)N[C@@H](Cc2ccc(O)cc2)C(=O)N(C)[C@@H](C)C(=O)N[C@@H](CC(=O)O)C(=O)N2CCC[C@H]2C(=O)N[C@@H](Cc2cnc[nH]2)C(=O)N[C@@H](CCC(=O)O)C(=O)N2C[C@H](O)C[C@H]2C(=O)N[C@@H](Cc2c[nH]c3ccccc23)C(=O)N[C@@H](CCN)C(=O)N[C@@H](Cc2c[nH]c3ccccc23)C(=O)N1C` [Example 5066] ({CH2CO}-Y[NMeA]DPHE[Hyp]W[Dab]W[NMeNle][NMeNle]LCG-NH2; thioether N-14), the IC50 was in the range of 0.158 to 4.71 nM in assay [1] (setting [2]) and 0.385 to 6.74 nM on Human PD-L1/PD-1 (setting [3]).
Take `CCCC[C@H]1C(=O)N(C)[C@@H](CCCC)C(=O)N[C@@H](CCCNC(=N)N)C(=O)N[C@H](C(=O)NCC(N)=O)CSCC(=O)N[C@@H](Cc2ccccc2)C(=O)N(C)[C@@H](C)C(=O)N[C@@H](CC(N)=O)C(=O)N2CCC[C@H]2C(=O)N[C@@H](Cc2cnc[nH]2)C(=O)N[C@@H](CC(C)C)C(=O)N(C)CC(=O)N[C@@H](Cc2cscn2)C(=O)N[C@@H](CO)C(=O)N[C@@H](Cc2c[nH]c3ccccc23)C(=O)N1C` [Example 1010] ({CH2CO}-F[NMeA]NPHL[Sar][Ala(4-thiazolyl)]SW[NMeNle][NMeNle]RCG-NH2; thioether N-14): the half-maximal inhibitory concentration (IC50) in assay [1] (cell line of CBA not given (LK35.2-hPD-L1 or 293T-hPD-L1), read-out: CBA IC50 value) is above 10000 nM; on Human PD-L1/PD-1 (read-out: HTRF IC50 value), above 10000 nM.
On to `CCCC[C@H]1C(=O)N(C)[C@@H](CCCC)C(=O)N[C@@H](CCCNC(=N)N)C(=O)NC(C(=O)NCC(N)=O)CSCC(=O)N[C@@H](Cc2ccc(O)cc2)C(=O)N(C)[C@@H](C)C(=O)N[C@@H](CC(N)=O)C(=O)N2CCC[C@H]2C(=O)N[C@@H](Cc2cnc[nH]2)C(=O)N[C@@H](CC(N)=O)C(=O)N2C[C@H](O)C[C@H]2C(=O)N[C@@H](Cc2c[nH]c3ccccc23)C(=O)N[C@@H](CO)C(=O)N[C@@H](Cc2csc3ccccc23)C(=O)N1C` (some centres unmarked) [Example 9066] ({CH2CO}-Y[NMeA]NPHN[Hyp]WS[Bta][NMeNle][NMeNle]R[ξC]G-NH2; thioether N-14), for which the IC50 in assay [1] (setting [2]) was in the range of 0.158 to 4.71 nM; on Human PD-L1/PD-1 (setting [3]), 0.385 to 6.74 nM.
On to `CCCC[C@H]1C(=O)N(C)[C@@H](CCCC)C(=O)N[C@@H](C(C)C)C(=O)N[C@H](C(=O)NCC(N)=O)CSCC(=O)N[C@@H](Cc2ccccc2)C(=O)N(C)[C@@H](C)C(=O)N[C@@H](CC(N)=O)C(=O)N2CCC[C@H]2C(=O)N[C@@H](Cc2cnc[nH]2)C(=O)N[C@@H](CC(C)C)C(=O)N(C)CC(=O)N[C@@H](Cc2c[nH]c3ccccc23)C(=O)N[C@@H](CO)C(=O)N[C@@H](Cc2c[nH]c3ccccc23)C(=O)N1C` [Example 5016] ({CH2CO}-F[NMeA]NPHL[Sar]WSW[NMeNle][NMeNle]VCG-NH2; thioether N-14), for which the IC50 was 4.78 to 72.9 nM in assay [1] (setting [2]) and 6.76 to 30.3 nM on Human PD-L1/PD-1 (setting [3]).
On the same counts, the results for `CCCC[C@H]1C(=O)N(C)[C@@H](CCCC)C(=O)N[C@@H](CCN)C(=O)N[C@H](C(=O)NCC(N)=O)CSCC(=O)N[C@@H](Cc2ccc(O)cc2)C(=O)N(C)[C@@H](C)C(=O)N[C@@H](CC(N)=O)C(=O)N2CCC[C@H]2C(=O)N[C@@H](Cc2c[nH]cn2)C(=O)N[C@@H](CCC(=O)O)C(=O)N2C[C@H](Cc3ccccc3)C[C@H]2C(=O)N[C@@H](Cc2c[nH]c3ccccc23)C(=O)N[C@@H](CCN)C(=O)N[C@@H](Cc2c[nH]c3ccccc23)C(=O)N1C` [Example 13007] ({CH2CO}-Y[NMeA]NPHE[Pro(4R-Bn)]W[Dab]W[NMeNle][NMeNle][Dab]CG-NH2; thioether N-14) are 0.158 to 4.71 nM and 0.385 to 6.74 nM.
For the molecule `CCCC[C@H]1C(=O)N(C)[C@@H](CCCC)C(=O)NCC(=O)N[C@H](C(=O)NCC(N)=O)CSCC(=O)N[C@@H](Cc2ccccc2)C(=O)N(C)[C@@H](C)C(=O)N[C@@H](CC(N)=O)C(=O)N2CCC[C@H]2C(=O)N[C@@H](Cc2cnc[nH]2)C(=O)N[C@@H](CC(C)C)C(=O)N(C)CC(=O)N[C@@H](Cc2c[nH]c3ccccc23)C(=O)N[C@@H](CO)C(=O)N[C@@H](Cc2c[nH]c3ccccc23)C(=O)N1C` [Example 5015] ({CH2CO}-F[NMeA]NPHL[Sar]WSW[NMeNle][NMeNle]GCG-NH2; thioether N-14), the IC50 in assay [1] (setting [2]) was 4.78 to 72.9 nM; at Human PD-L1/PD-1 (setting [3]), 6.76 to 30.3 nM.
Consider `CCCC[C@@H]1NC(=O)[C@H](Cc2ccc(O)cc2)NC(=O)[C@H](Cc2c[nH]c3ccccc23)NC(=O)CN(C)C(=O)[C@H](Cc2ccc(O)cc2)NC(=O)[C@H](Cc2ccccc2)N(C)C(=O)[C@H](C(C)C)NC(=O)[C@H](CC(=O)O)NC(=O)CN(C)C(=O)[C@H](CCCC)N(C)C(=O)[C@H](Cc2ccccc2)N(C)C(=O)[C@H](Cc2ccccc2)NC(=O)CSC[C@@H](C(=O)NCC(N)=O)NC1=O` [Example 3097] (HELM PEPTIDE1{[O=C(C[*:3])[*:2]].F.[meF].[CCCC[C@@H](C(=O)[*:2])N(C)[*:1]].[Sar].D.V.[meF].Y.[Sar].W.Y.[Nle].C.G.[am]}$PEPTIDE1,PEPTIDE1,1:R3-14:R3$$$V2.0), for which the half-inhibitory concentration (IC50) in assay [1] (setting [4]) is 4.78 to 72.9 nM; on Human PD-L1/PD-1 (setting [3]), 6.76 to 30.3 nM.
